We go through eleven compounds from ChEMBL document CHEMBL5233262, “Anti-inflammatory activity of naturally occuring diarylheptanoids - A review” (Bioorg Med Chem, 2021).

Structures are written as SMILES. Where only a bound is given, the exact number is not on record here.

The test system of assay [1] is Rattus norvegicus. Kind of assay: Antiinflammatory activity in rat model of ethyl phenylpropiolate-induced ear edema assessed as reduction in ear thickness administered topically and measured after 30 mins. In kind it is functional. To be noted: 0.5 h.
Assay [2] has as its system Rattus norvegicus. The assay can be described thus: Antiinflammatory activity in rat model of ethyl phenylpropiolate-induced ear edema assessed as 30% reduction in ear thickness administered topically and measured after 30 mins. It counts as functional. The following applies: 0.5 h.
The subject of assay [3] is Rattus norvegicus. The assay can be described thus: Antiinflammatory activity in rat model of ethyl phenylpropiolate-induced ear edema assessed as reduction in ear thickness administered topically and measured after 1 hr. It counts as functional.
Assay [4] relates to Rattus norvegicus. Kind of assay: Antiinflammatory activity in rat model of ethyl phenylpropiolate-induced ear edema assessed as 30% reduction in ear thickness administered topically and measured after 1 hr. In kind it is functional.
Assay [5] concerns RAW264.7. The assay can be described thus: Antiinflammatory activity in mouse RAW264.7 cells assessed as inhibition of LPS-induced TNFalpha production preincubated for 1 hr followed by LPS stimulation and measured after 18 hrs by immunoassay. In kind it is functional, cell-based.
Assay [6] has as its system RAW264.7. Kind of assay: Antiinflammatory activity in mouse RAW264.7 cells assessed as inhibition of LPS-induced NF-kappaB activation incubated for 24 hrs by SEAP microplate reader analysis. In kind it is functional, cell-based. The following applies: RAW264.7, 24 h.
The subject of assay [7] is RAW264.7. Kind of assay: Antiinflammatory activity in mouse RAW264.7 cells assessed as inhibition of LPS-induced NO production incubated for 24 hrs by Griess reagent based analysis. It counts as functional, cell-based. To be noted: RAW264.7, 24 h. In general terms: Griess reagent forms a coloured azo dye with nitrite.
Assay [8] concerns RAW264.7. Kind of assay: Antiinflammatory activity in mouse RAW264.7 cells assessed as inhibition of LPS-induced NF-kappaB expression preincubated for 1 hr followed by LPS stimulation and measured after 18 hrs by qPCR analysis. It counts as functional, cell-based.
Assay [9] concerns RAW264.7. The assay can be described thus: Antiinflammatory activity in mouse RAW264.7 cells assessed as inhibition of KLA-induced TNFalpha expression at 0.06 mg/ml and measured after 24 hrs by ELISA. It counts as functional. (In an ELISA, binding on a coated surface is turned into a signal by an enzyme label.)
Assay [10] has as its system RAW264.7. The assay can be described thus: Antiinflammatory activity in mouse RAW264.7 cells assessed as inhibition of LPS-induced NO production incubated for 20 hrs by Griess reagent based microplate reader analysis. It counts as functional, cell-based. To be noted: RAW264.7, 20 h.
The subject of assay [11] is RAW264.7. The assay can be described thus: Antiinflammatory activity in mouse RAW264.7 cells assessed as inhibition of LPS-induced iNOS expression at 25 uM. It counts as functional.
Assay [12] has as its system Rattus norvegicus. The assay can be described thus: Antiinflammatory activity in Wistar rat model of carrageenan-induced paw edema assessed as reduction in paw thickness at 10 mg/kg,po and measured after 5 hrs. In kind it is functional. Also on record: scale not given: the % may be the effect or the level left. In general terms: In the carrageenan paw model, swelling and tenderness develop within hours.

Assay [13] relates to Mus musculus. Kind of assay: Antiinflammatory activity in TPA-induced ear edema ICR mouse model assessed as inhibition of ear inflammation at 1 ug, TOP for 30 mins followed by TPA addition and measured after 6 hrs. To be noted: dose 1 µg, time 390 min, 6.5 h. In kind it is functional.
A short description of assay [14]: Antioxidant activity assessed as DPPH radical scavenging activity incubated for 30 mins by spectrophotometric analysis. It counts as functional.
Assay [15] is described as follows: Antioxidant activity assessed as nitroblue tetrazolium superoxide radical scavenging activity incubated for 10 mins by spectrophotometric analysis. In kind it is functional.
Assay [16] is described as follows: Antioxidant activity assessed as nitroblue tetrazolium superoxide radical scavenging activity by spectrophotometric analysis. It counts as functional.
The test system of assay [17] is RAW264.7. The assay can be described thus: Antiinflammatory activity in mouse RAW264.7 cells assessed as inhibition of LPS-induced NO production incubated for 20 hrs by Griess method. It counts as functional, cell-based. The following applies: RAW264.7, 20 h.
The subject of assay [18] is RAW264.7. Kind of assay: Antiinflammatory activity in mouse RAW264.7 cells assessed as inhibition of LPS-induced NO production incubated for 18 hrs by Griess method. In kind it is functional, cell-based. The following applies: RAW264.7, 18 h.
Assay [19] relates to RAW264.7. Kind of assay: Antiinflammatory activity in mouse RAW264.7 cells assessed as inhibition of LPS-induced NO production preincubated for 1 hrs followed by LPS stimulation and measured after 24 hrs by Griess reagent based analysis. It counts as functional, cell-based.
Assay [20] concerns RAW264.7. The assay can be described thus: Antiinflammatory activity in mouse RAW264.7 cells assessed as inhibition of LPS-induced NO production incubated for 24 hrs by Griess method. To be noted: RAW264.7, 24 h. It counts as functional, cell-based.
In assay [21] the test system is Mus musculus. The assay can be described thus: Antiinflammatory activity in ICR mouse model of TPA-induced ear edema assessed as inhibition of ear inflammation at 1 mg,TOP for 30 mins followed by TPA addition and measured after 6 hrs. It counts as functional. To be noted: time 390 min, 6.5 h.
In assay [22] the test system is RAW264.7. The assay can be described thus: Antiinflammatory activity in mouse RAW264.7 cells assessed as inhibition of LPS-induced IL-1beta production. In kind it is functional, cell-based.
In assay [23] the test system is RAW264.7. The assay can be described thus: Antiinflammatory activity in mouse RAW264.7 cells assessed as inhibition of LPS-induced TNF-alpha production. It counts as functional, cell-based.
Assay [24] has as its system RAW264.7. The assay can be described thus: Antiinflammatory activity in mouse RAW264.7 cells assessed as inhibition of LPS-induced IL-6 production. It counts as functional, cell-based.
The test system of assay [25] is RAW264.7. Kind of assay: Antiinflammatory activity in mouse RAW264.7 cells assessed as inhibition of LPS-induced NO production at 30 uM preincubated for 0.5 hrs followed by LPS stimulation and measured after 24 hrs by Griess reagent based analysis. In kind it is functional. The following applies: time 24.5 hrs.
Another assay deals with J774.A1. Kind of assay: Antiinflammatory activity in mouse J774.A1 cells assessed as inhibition of LPS-induced NO production incubated for 24 hrs by Griess reagent based analysis. It counts as functional, cell-based. The following applies: J774.A1, 24 h.
Assay [26] deals with RAW264.7. Kind of assay: Antiinflammatory activity in mouse RAW264.7 cells assessed as inhibition of LPS-induced NO production at 10 ug/ml incubated for 20 hrs by Griess reagent based microplate reader analysis. It counts as functional.
In assay [27] the test system is RAW264.7. The assay can be described thus: Antiinflammatory activity in mouse RAW264.7 cells assessed as inhibition of LPS-induced NO production preincubated for 1 hrs followed by LPS stimulation and measured after 24 hrs by Griess method. It counts as functional, cell-based.
Assay [28] concerns RAW264.7. The assay can be described thus: Antiinflammatory activity in mouse RAW264.7 cells assessed as inhibition of LPS-induced TNFalpha level preincubated for 1 hrs followed by LPS stimulation and measured after 24 hrs by ELISA. In kind it is functional, cell-based.
Assay [29] deals with Hepatocyte. The assay can be described thus: Hepatoprotective activity against CCL4-induced rat hepatocyte toxicity assessed as decrease in ALT level at 1 uM preincubated for 30 mins followed by CCL4 addition and measured after 180 mins by colorimetric method. To be noted: time 210 min. In kind it is functional. Also on record: scale not given: the % may be the effect or the level left.

Assay [30] relates to Hepatocyte. Kind of assay: Hepatoprotective activity against CCL4-induced rat hepatocyte toxicity assessed as decrease in TBARS level by measuring MDA formation at 1 uM preincubated for 30 mins followed by CCL4 addition and measured after 180 mins by TBARS method. It counts as functional. To be noted: time 210 min. More on the design: scale not given: the % may be the effect or the level left.

The subject of assay [31] is Hepatocyte. Kind of assay: Hepatoprotective activity against CCL4-induced rat hepatocyte toxicity assessed as decrease in TNF-alpha level at 1 uM preincubated for 30 mins followed by CCL4 addition and measured after 180 mins by ELISA. In kind it is functional. Also on record: scale not given: the % may be the effect or the level left. To be noted: time 210 min.
The test system of assay [32] is Hepatocyte. Kind of assay: Hepatoprotective activity against CCL4-induced rat hepatocyte toxicity assessed as decrease in IL-1beta level at 1 uM preincubated for 30 mins followed by CCL4 addition and measured after 180 mins by ELISA. To be noted: time 210 min. Also on record: scale not given: the % may be the effect or the level left. In kind it is functional.

For the compound `CCCCC1C(=O)N(c2ccccc2)N(c2ccc(O)cc2)C1=O` (stereo not drawn) [OXYPHENBUTAZONE ANHYDROUS], the ID50 in the assay on Rattus norvegicus [1] was determined as 12 µg; in the assay on Rattus norvegicus [3], 46 µg. Moreover, the figures for the ID30 in the assay on Rattus norvegicus [2] and with Rattus norvegicus [4] were 0.2 µg and 0.3 µg, respectively.
`C=C1C(=O)O[C@@H]2[C@H]3O[C@]3(C)CC/C=C(\C)CC[C@@H]12`: the IC50 (commonly the point on the concentration scale where inhibition reaches its midpoint) came out at 2.6 µM in the assay with RAW264.7 [5], 3.4 µM in the assay with RAW264.7 [6], 2.4 µM in the assay on RAW264.7 [7] and 3.4 µM in the assay with RAW264.7 [8].
Take `O=C(/C=C/CCc1ccccc1)CCc1ccccc1`: the inhibition – broadly, the relative decrease from the control value, in per cent – at 60 µg/mL in the assay on RAW264.7 [9] was 38%. For the same compound, in the assay on RAW264.7 [10], the IC50 was 6.8 µM. In addition, in the assay with RAW264.7 [11], the inhibition at 25 µM amounted to 71%. Moreover, the Activity in the assay with Rattus norvegicus [12] was 4.7%. Further, the ID50 with Mus musculus [13] was determined as 2.7 µmol.
With `COc1ccc2cc1Oc1ccc(c(O)c1OC)CCCC[C@H](O)CC2`, the IC50 in the assay with RAW264.7 [5] is 22.3 µM; with RAW264.7 [7] it was 18.2 µM; in the assay with RAW264.7 [8] it was 9.4 µM.
As for `O=C(CCCCc1ccc(O)c(O)c1)CCc1ccc(O)c(O)c1`, the IC50 in assay [14] came to 20.1 µM; in [15], 12.7 µM; in assay [16] it was 30.1 µM; in the assay on RAW264.7 [17], 2.6 µM; with RAW264.7 [18], 16.8 µM; in the assay on RAW264.7 [19], 6.6 µM. Besides, the half-maximal inhibitory concentration (IC50) in the assay with RAW264.7 [20] turned out to be 22.7 µM.
As to `O=c1c(O)c(-c2ccc(O)c(O)c2)oc2cc(O)cc(O)c12` [QUERCETIN], the ID50 in the assay with Mus musculus [21] was found to be 1.6 mg. In addition, the half-inhibitory concentration (IC50) was 16.9 µM in the assay on RAW264.7 [22], 13.6 µM in the assay on RAW264.7 [23] and 16.8 µM in the assay on RAW264.7 [24].
Regarding `OC[C@H]1O[C@@H](O[C@H](CCCCc2ccc(O)cc2)CCc2ccc(O)cc2)[C@H](O)[C@@H](O)[C@@H]1O`, the inhibition at 30 µM with RAW264.7 [25] worked out at 24%. Besides, the ID50 with Mus musculus [21] is listed as 0.66 mg. Besides, in the assay on J774.A1, the half-inhibitory concentration (IC50) is 100 µM.
As to `COc1cc(CCC(O)CC(O)CCc2ccc(O)c(O)c2)ccc1O` (stereo not drawn), the IC50 with RAW264.7 [10] stood at 22.8 µM. The inhibition at 25 µM with RAW264.7 [11] came to 32%.
Take `COc1cc(CCC(O)CC(O)CCc2ccccc2)ccc1O` (stereo not drawn): in the assay with RAW264.7 [10], the IC50 was over 30 µM. Besides, in the assay on RAW264.7 [26], the inhibition at 10 µg/mL was found to be 27%.
Regarding `COc1cc(/C=C/C(=O)CC(=O)/C=C/c2ccc(O)c(OC)c2)ccc1O` [CURCUMIN], the IC50 in the assay with RAW264.7 [27] worked out at 12.3 µM; in the assay with RAW264.7 [28], 11.2 µM. In addition, the Activity in the assay with Hepatocyte [29] is listed as 57.6%; in the assay with Hepatocyte [30] it was 39.2%; in the assay with Hepatocyte [31], 37.1%; in the assay with Hepatocyte [32] it was 63.3%.
As to `COc1cc2cc(c1O)-c1cc(ccc1O)CC[C@H](O)CCCC2`, the values for the IC50 in the assay with RAW264.7 [22], in the assay with RAW264.7 [23] and with RAW264.7 [24] were 17.9 µM, 19.5 µM and 20.3 µM, respectively.
